The subject of test [1] is HCT-116 MTAP(-/-)deleted cells. The test is described as follows: Inhibitory activity on proliferation of HCT-116 MTAP(-/-)deleted cells (Cell-Titer Glo). In kind it is cell-based. As to conditions: Homo sapiens, 144 h, incubated 6 d, 0-1,000 nM. The method, then:
Materials and cells: HCT-116 MTAP(-/-)deleted cells were purchased from Kyinno Biotechnology (China); RPMI-1640 medium, and fetal bovine serum were purchased from Thermo Fisher (United States); 384-well plates were purchased from PerkinElmer (United States); Cell-Titer Glo kit was purchased from Promega (United States).
Cell culture: HCT116 MTAP(-/-)deleted cells were cultured with RPMI 1640 medium containing 10% fetal bovine serum at 37°C in 5% carbon dioxide. Only cells in the logarithmic growth phase could be used for the test.
Test of inhibitory activity on cell proliferation: The Cell-Titer Glo kit was used to test the proliferation inhibitory activity of the compounds on HCT-116 MTAP(-/-)deleted cells. The cell concentration was adjusted, rendering that cells were inoculated into a 384-well plate at 40 µL per well and incubated overnight at 37°C and 5% carbon dioxide. 80 nL of the compound was added into each well to reach a final concentration of 0-1,000 nM (starting concentration 1,000 nM, 2.5-fold dilution, 10 points), and the cell plate with 0.2% DMSO content was incubated at 37°C and 5% carbon dioxide for 6 d. 40 µL of Cell-Titer Glo reagent was added to test cell viability.

In another test the test system is HCT-116 wild-type cells. Briefly: Inhibitory activity on proliferation of HCT-116 wild-type cells (Cell-Titer Glo). As to conditions: Homo sapiens, 144 h, incubated 6 d, 0-10,000 nM. The format is cell-based. The method, then:
Materials and cells: HCT-116 wild-type cells were purchased from Kyinno Biotechnology (China); RPMI-1640 medium, and fetal bovine serum were purchased from Thermo Fisher (United States); 384-well plates were purchased from PerkinElmer (United States); Cell-Titer Glo kit was purchased from Promega (United States).
Cell culture: HCT-116 wild-type cells were cultured in RPMI-1640 medium containing 10% fetal bovine serum at 37°C and 5% carbon dioxide. Only cells in the logarithmic growth phase could be used for the test.
Test of cell proliferation activity: Cell-Titer Glo kit was used to test the proliferation inhibitory activity of the compound on HCT-116 wild-type cells. The cell concentration was adjusted, rendering that cells were inoculated into a 384-well plate at 40 µL per well and incubated overnight at 37°C and 5% carbon dioxide. 80 nL of the compound was added to each well to reach a final concentration of 0-10,000 nM (starting concentration 10,000 nM, 2.5-fold dilution, 10 points), and the cell plate with 0.2% DMSO content was incubated at 37°C and 5% carbon dioxide for 6 d. 40 µL of Cell-Titer Glo reagent was added to test cell viability.

Usually IC50 stands for the concentration that gives 50% inhibition. Consider `CN(C(=O)c1ccc2nc(N)c3cnn(C)c3c2c1)C1COC(C)(C)c2cc(C(F)(F)F)ccc21` (stereo not drawn) [Example 1, 4-amino-N-(1,1-dimethyl-7-(trifluoromethyl)isochroman-4-yl)-N,1-dimethyl-1H-pyrazolo [4,3-c] quinoline-8-carboxamide], for which the 50% inhibitory concentration (IC50) in test [1] is 5.2 nM; in the test on HCT-116 wild-type cells it was 1200 nM.
`CN(C(=O)c1ccc2nc(N)c3c(c2c1)OCCO3)C1COC(C)(C)c2cc(C(F)(F)F)ccc21` (stereo not drawn) [Example 2, 5-Amino-N-(1,1-dimethyl-7-(trifluoromethyl)isochroman-4-yl)-N-methyl-2,3-dihydro-[1,4]dioxa[2,3-c]quinoline-9-carboxamide]: the IC50 in test [1] was above 3000 nM; with HCT-116 wild-type cells it was above 10000 nM.
With `CN(C(=O)c1ccc2nc(N)c3ccsc3c2c1)C1COC(C)(C)c2cc(C(F)(F)F)ccc21` (stereo not drawn) [Example 3, 4-Amino-N-(1,1-dimethyl-7-(trifluoromethyl)isochroman-4-yl)-N-methylthieno[3,2-c]quinoline-8-carboxamide], the IC50 is 435 nM in test [1] and 7540 nM with HCT-116 wild-type cells.
On to `CN(C(=O)c1ccc2nc(N)c3c(c2c1)CCC3)C1COC(C)(C)c2cc(C(F)(F)F)ccc21` (stereo not drawn) [Example 11, 4-Amino-N-(1,1-dimethyl-7-(trifluoromethyl)isochroman-4-yl)-N-methyl-2,3-dihydro-1H-cyclopenta[c]quinoline-8-carboxamide], for which the IC50 in test [1] was 147 nM; in the test with HCT-116 wild-type cells, 3120 nM.
The corresponding values for `CN(C(=O)c1ccc2nc(N)c3c(c2c1)CCCC3)C1COC(C)(C)c2cc(C(F)(F)F)ccc21` (stereo not drawn) [Example 19, 6-Amino-N-(1,1-dimethyl-7-(trifluoromethyl)isochroman-4-yl)-N-methyl-7,8,9,10-tetrahydrophenanthridine-2-carboxamide] are 318 nM and 7210 nM.
For `CN(C(=O)c1ccc2nc(N)c3ccccc3c2c1)C1COC(C)(C)c2cc(C(F)(F)F)ccc21` (stereo not drawn) [Example 20, 6-Amino-N-(1,1-dimethyl-7-(trifluoromethyl)isochroman-4-yl)-N-methylphenanthridine-2-carboxamide] the same measures were 738 nM and 5870 nM.
For `CN(C(=O)c1cc2c(cn1)nc(N)c1cnn(C)c12)C1COC2(CCC2)c2cc(C(F)(F)F)ccc21` (stereo not drawn) [Example 31], the results for the 50% inhibitory concentration (IC50) (in test [1]; in the test on HCT-116 wild-type cells) were 6.2 nM and 285 nM, respectively.
For `CN(C(=O)c1ccc2nc(N)c3cnn(C)c3c2c1)C1COC(C)(C)c2cc(-c3cnc4cnccn34)ccc21` (stereo not drawn) [Example 48] the same measures were 7.9 nM and 435 nM.
For `CN(C(=O)c1ccc2nc(N)c3cnn(C)c3c2c1)C1COC2(CCC2)c2nc(N3CCOCC3)ccc21` (stereo not drawn) [Example 53, 4-amino-N,1-dimethyl-N-(2'-morpholino-5',6'-dihydrospiro[cyclobutane-1,8'-pyrano[3,4-b]pyridin]-5'-yl)-1H-pyrazolo[4,3-c]quinoxaline-8-carboxamide], the figures for the IC50 (in test [1]; with HCT-116 wild-type cells) were 312 nM and above 10000 nM, respectively.
`CN(C(=O)c1ccc2nc(N)c3cnn(C)c3c2c1)[C@@H]1COC(C)(C)c2nc(N3CCOCC3)ccc21` [Example 54]: the IC50 in test [1] came to 5.8 nM; in the test with HCT-116 wild-type cells, 1810 nM.
For `CN(C(=O)c1ccc2nc(N)c3cnn(C)c3c2c1)[C@@H]1COC(C)(C)c2cc(N3CCOCC3)ncc21` [Example 55] the same measures were 20.2 nM and above 10000 nM.
For `CN(C(=O)c1ccc2nc(N)c3cnn(C)c3c2c1)[C@@H]1COC(C)(C)c2cc(N3CC4COCC4C3)ccc21` (stereo partly drawn) [Example 56, 4-Amino-N-((4S)-1,1-dimethyl-7-(tetrahydro-1H-furo[3,4-c]pyrrol-5(3H)-yl)isochroman-4-yl)-N,1-dimethyl-1H-pyrazolo[4,3-c]quinoxaline-8-carboxamide] the same measures were 4.4 nM and 1330 nM.
As for `CN(C(=O)c1ccc2nc(N)c3cnn(C)c3c2c1)[C@@H]1COC(C)(C)c2cc(C3=CCOCC3)ccc21` [Example 57, (S)-4-amino-N-(7-(3,6-dihydro-2H-pyran-4-yl)-1,1-dimethylisochroman-4-yl)-N,1-dimethyl-1H-pyrazolo[4,3-c]quinoxaline-8-carboxamide], the half-inhibitory concentration (IC50) in test [1] came to 5.2 nM; in the test on HCT-116 wild-type cells it was 880 nM.
The corresponding values for `CN(C(=O)c1ccc2nc(N)c3cnn(C)c3c2c1)C1COC(C)(C)c2cc(N3CCC(F)(F)C3)ccc21` (stereo not drawn) [Example 74, 4-Amino-N-(7-(3,3-difluoropyrrolidin-1-yl)-1,1-dimethylisochroman-4-yl)-N,1-dimethyl-1H-pyrazolo[4,3-c]quinoxaline-8-carboxamide] are 10.5 nM and 2110 nM.
The corresponding values for `CN(C(=O)c1ccc2nc(N)c3cnn(C)c3c2c1)[C@@H]1COC(C)(C)c2cc(N3CCC4(CC3)COC4)ccc21` [Example 75, (S)-4-amino-N-(1,1-dimethyl-7-(2-oxa-7-azaspiro[3.5]nonan-7-yl)isochroman-4-yl)-N,1-dimethyl-1H-pyrazolo[4,3-c]quinoxaline-8-carboxamide] are 8.2 nM and 2610 nM.
The corresponding values for `CN(C(=O)c1ccc2nc(N)c3cnn(C)c3c2c1)[C@@H]1COC(C)(C)c2cc(N3CC(F)(F)C3)ccc21` [Example 76, (S)-4-amino-N-(7-(3,3-difluoroazetidin-1-yl)-1,1-dimethylisochroman-4-yl)-N,1-dimethyl-1H-pyrazolo[4,3-c]quinoxaline-8-carboxamide] are 6.1 nM and 2520 nM.
For the compound `CN(C(=O)c1cc2c(cc1C(F)(F)F)nc(N)c1cnn(C)c12)[C@@H]1COC2(CCC2)c2cc(C(F)(F)F)ccc21` [Example 77], the results for the 50% inhibitory concentration (IC50) (in test [1]; in the test on HCT-116 wild-type cells) were 9.8 nM and 1030 nM, respectively.
The corresponding values for `Cn1ncc2c(N)nc3cnc(C(=O)N(C4CC4)C4COC5(CCC5)c5cc(C(F)(F)F)ccc54)cc3c21` (stereo not drawn) [Example 87, 4-Amino-N-cyclopropyl-1-methyl-N-(7'-(trifluoromethyl)spiro[cyclobutane-1,1'-isochroman]-4'-yl)-1H-pyrazolo[4,3-c][1,7]naphthyridine-8-carboxamide] are 11.2 nM and 763 nM.
